Results: ChEMBL document CHEMBL3885861, “Open TG-GATES”

Organism: Rattus norvegicus
Assay: Open TG-GATES - Regimen: Daily Repeat
Assay type: toxicity, organism-based, Sprague-Dawley
Design: regimen Daily Repeat, gender Male, age 6 weeks
Conditions: in vivo, po, route gavage; for APTT / Bas / Eos / Fbg / Hb / Ht / Lym / MCH / MCHC / MCV / Mono / Neu / PT / Plat / RBC / Ret / WBC: tissue Blood; for KIDNEY_L / KIDNEY_R / KIDNEY_TOTAL: tissue Kidney; for LIVER: tissue Liver; for A/G / ALP / ALT / AST / BUN / CRE / Ca / Cl / DBIL / GLC / IP / K / LDH / Na / PL / RALB / TBIL / TC / TG / TP / gamma-GTP: tissue Plasma
[1] = 60 mg/kg, 72 h, dose level Middle, time 3 day
[2] = 60 mg/kg, […], dose level Middle, time 7 day
[3] = 60 mg/kg, […], dose level Middle, time 14 day
[4] = 60 mg/kg, […], dose level Middle, time 28 day
[5] = 200 mg/kg, 72 h, dose level High, time 3 day
[6] = 200 mg/kg, […], dose level High, time 7 day
[7] = 200 mg/kg, […], dose level High, time 14 day
[8] = 200 mg/kg, […], dose level High, time 28 day

## Cn1c(=O)c2[nH]cnc2n(C)c1=O.O [THEOPHYLLINE]
[1]
  TERMINAL_BW: 242.6 g
  APTT: 21.7 s
  Bas: 0%
  Eos: 0.6%
  Fbg: 303.4 mg/dL
  Hb: 13.4 g/dL
  Ht: 40.4%
  Lym: 78.4%
  MCH: 20.8 pg
  MCHC: 33.2%
  MCV: 62.8 fL
  Mono: 3.2%
  Neu: 16.4%
  PT: 15.5 s
  Plat: 123.5 x10_4/uL
  RBC: 644.2 x10_4/ul
  Ret: 7.4%
  WBC: 126 x10_2/uL
  KIDNEY_L: 1 g
  KIDNEY_R: 1.1 g
  KIDNEY_TOTAL: 2.1 g
  LIVER: 10.8 g
  A/G: 1.2
  ALP: 1599.4 IU/L
  ALT: 44.2 IU/L
  AST: 69.2 IU/L
  BUN: 14.8 mg/dL
  CRE: 0.2 mg/dL
  Ca: 10.7 mg/dL
  Cl: 106.2 meq/L
  DBIL: 0 mg/dL
  GLC: 186 mg/dL
  IP: 8.4 mg/dL
  K: 4.2 meq/L
  LDH: 146.6 IU/L
  Na: 142 meq/L
  PL: 132.8 mg/dL
  RALB: 2.9 g/dL
  TBIL: 0.004 mg/dL
  TC: 80.4 mg/dL
  TG: 75 mg/dL
  TP: 5.3 g/dL
  gamma-GTP: 1.4 IU/L
[2]
  TERMINAL_BW: 265.8 g
  APTT: 23.4 s
  Bas: 0%
  Eos: 0.8%
  Fbg: 299.4 mg/dL
  Hb: 13.9 g/dL
  Ht: 40.6%
  Lym: 79%
  MCH: 21.2 pg
  MCHC: 34.2%
  MCV: 61.9 fL
  Mono: 2.8%
  Neu: 16.2%
  PT: 15.4 s
  Plat: 109.7 x10_4/uL
  RBC: 655.8 x10_4/ul
  Ret: 5.4%
  WBC: 123.4 x10_2/uL
  KIDNEY_L: 1.2 g
  KIDNEY_R: 1.2 g
  KIDNEY_TOTAL: 2.4 g
  LIVER: 11.6 g
  A/G: 1.2
  ALP: 1497.8 IU/L
  ALT: 42.2 IU/L
  AST: 77.6 IU/L
  BUN: 17.6 mg/dL
  CRE: 0.2 mg/dL
  Ca: 10.4 mg/dL
  Cl: 107 meq/L
  DBIL: 0 mg/dL
  GLC: 195.4 mg/dL
  IP: 7.8 mg/dL
  K: 4.3 meq/L
  LDH: 175.4 IU/L
  Na: 142.2 meq/L
  PL: 140.2 mg/dL
  RALB: 3 g/dL
  TBIL: 0.006 mg/dL
  TC: 72 mg/dL
  TG: 86.8 mg/dL
  TP: 5.6 g/dL
  gamma-GTP: 1.6 IU/L
[3]
  TERMINAL_BW: 313.9 g
  APTT: 24.1 s
  Bas: 0%
  Eos: 0.8%
  Fbg: 336.8 mg/dL
  Hb: 14.5 g/dL
  Ht: 42.9%
  Lym: 77.8%
  MCH: 20.6 pg
  MCHC: 33.9%
  MCV: 60.7 fL
  Mono: 2.4%
  Neu: 18%
  PT: 15.1 s
  Plat: 109.2 x10_4/uL
  RBC: 706.4 x10_4/ul
  Ret: 4.9%
  WBC: 119.3 x10_2/uL
  KIDNEY_L: 1.3 g
  KIDNEY_R: 1.3 g
  KIDNEY_TOTAL: 2.6 g
  LIVER: 13.8 g
  A/G: 1.1
  ALP: 1338.2 IU/L
  ALT: 43 IU/L
  AST: 73.8 IU/L
  BUN: 17 mg/dL
  CRE: 0.2 mg/dL
  Ca: 10.3 mg/dL
  Cl: 105.6 meq/L
  DBIL: 0 mg/dL
  GLC: 181 mg/dL
  IP: 8 mg/dL
  K: 4.1 meq/L
  LDH: 178 IU/L
  Na: 142.2 meq/L
  PL: 143.4 mg/dL
  RALB: 3.1 g/dL
  TBIL: 0.006 mg/dL
  TC: 79 mg/dL
  TG: 83.6 mg/dL
  TP: 5.8 g/dL
  gamma-GTP: 2.2 IU/L
[4]
  TERMINAL_BW: 384.1 g
  APTT: 25.6 s
  Bas: 0%
  Eos: 1%
  Fbg: 330.2 mg/dL
  Hb: 15.8 g/dL
  Ht: 45.7%
  Lym: 78%
  MCH: 19.8 pg
  MCHC: 34.5%
  MCV: 57.3 fL
  Mono: 3%
  Neu: 16.8%
  PT: 15.6 s
  Plat: 99.5 x10_4/uL
  RBC: 798 x10_4/ul
  Ret: 3.3%
  WBC: 104.8 x10_2/uL
  KIDNEY_L: 1.5 g
  KIDNEY_R: 1.5 g
  KIDNEY_TOTAL: 3 g
  LIVER: 16.3 g
  A/G: 1.1
  ALP: 1071.4 IU/L
  ALT: 40.8 IU/L
  AST: 67.8 IU/L
  BUN: 16.2 mg/dL
  CRE: 0.2 mg/dL
  Ca: 10.3 mg/dL
  Cl: 106 meq/L
  DBIL: 0 mg/dL
  GLC: 189.8 mg/dL
  IP: 7.4 mg/dL
  K: 4.1 meq/L
  LDH: 137.6 IU/L
  Na: 143.2 meq/L
  PL: 135.8 mg/dL
  RALB: 3.2 g/dL
  TBIL: 0.024 mg/dL
  TC: 71.2 mg/dL
  TG: 97.4 mg/dL
  TP: 6.1 g/dL
  gamma-GTP: 1.8 IU/L
[5]
  TERMINAL_BW: 221.1 g
  APTT: 22.1 s
  Bas: 0%
  Eos: 0.5%
  Fbg: 438.5 mg/dL
  Hb: 15 g/dL
  Ht: 44.8%
  Lym: 77.8%
  MCH: 21.1 pg
  MCHC: 33.5%
  MCV: 63 fL
  Mono: 3.8%
  Neu: 15.8%
  PT: 16.7 s
  Plat: 134.2 x10_4/uL
  RBC: 711.5 x10_4/ul
  Ret: 6.6%
  WBC: 107.4 x10_2/uL
  KIDNEY_L: 0.9 g
  KIDNEY_R: 0.9 g
  KIDNEY_TOTAL: 1.9 g
  LIVER: 9.5 g
  A/G: 1.2
  ALP: 1278.8 IU/L
  ALT: 42.5 IU/L
  AST: 73.2 IU/L
  BUN: 15.2 mg/dL
  CRE: 0.2 mg/dL
  Ca: 10.9 mg/dL
  Cl: 106.8 meq/L
  DBIL: 0 mg/dL
  GLC: 178.8 mg/dL
  IP: 7.3 mg/dL
  K: 4.3 meq/L
  LDH: 198.8 IU/L
  Na: 141.8 meq/L
  PL: 122.8 mg/dL
  RALB: 3.1 g/dL
  TBIL: 0.0075 mg/dL
  TC: 75 mg/dL
  TG: 37.8 mg/dL
  TP: 5.7 g/dL
  gamma-GTP: 1.5 IU/L
[6]
  TERMINAL_BW: 254.4 g
  APTT: 23 s
  Bas: 0%
  Eos: 0.2%
  Fbg: 354 mg/dL
  Hb: 14.6 g/dL
  Ht: 43%
  Lym: 67.4%
  MCH: 20.2 pg
  MCHC: 33.9%
  MCV: 59.7 fL
  Mono: 4.6%
  Neu: 26%
  PT: 16.7 s
  Plat: 117.7 x10_4/uL
  RBC: 720.6 x10_4/ul
  Ret: 6%
  WBC: 116.9 x10_2/uL
  KIDNEY_L: 1.1 g
  KIDNEY_R: 1.1 g
  KIDNEY_TOTAL: 2.1 g
  LIVER: 11.2 g
  A/G: 1.2
  ALP: 1736.2 IU/L
  ALT: 58.6 IU/L
  AST: 79 IU/L
  BUN: 16.6 mg/dL
  CRE: 0.2 mg/dL
  Ca: 10.8 mg/dL
  Cl: 104.2 meq/L
  DBIL: 0 mg/dL
  GLC: 173 mg/dL
  IP: 8.2 mg/dL
  K: 4.4 meq/L
  LDH: 182.6 IU/L
  Na: 142 meq/L
  PL: 134.6 mg/dL
  RALB: 3.3 g/dL
  TBIL: 0.01 mg/dL
  TC: 74 mg/dL
  TG: 65.6 mg/dL
  TP: 5.9 g/dL
  gamma-GTP: 2.2 IU/L
[7]
  TERMINAL_BW: 288.8 g
  APTT: 24.8 s
  Bas: 0%
  Eos: 0.2%
  Fbg: 337 mg/dL
  Hb: 15.5 g/dL
  Ht: 45.7%
  Lym: 77%
  MCH: 20.1 pg
  MCHC: 33.8%
  MCV: 59.5 fL
  Mono: 3.2%
  Neu: 18.2%
  PT: 16.1 s
  Plat: 102.3 x10_4/uL
  RBC: 767.8 x10_4/ul
  Ret: 4.7%
  WBC: 128.3 x10_2/uL
  KIDNEY_L: 1.2 g
  KIDNEY_R: 1.3 g
  KIDNEY_TOTAL: 2.5 g
  LIVER: 11.7 g
  A/G: 1.2
  ALP: 1300.2 IU/L
  ALT: 54 IU/L
  AST: 85 IU/L
  BUN: 13.8 mg/dL
  CRE: 0.2 mg/dL
  Ca: 10.4 mg/dL
  Cl: 104.8 meq/L
  DBIL: 0 mg/dL
  GLC: 175.5 mg/dL
  IP: 8.7 mg/dL
  K: 4.2 meq/L
  LDH: 137.2 IU/L
  Na: 141.8 meq/L
  PL: 128.8 mg/dL
  RALB: 3.2 g/dL
  TBIL: 0.02 mg/dL
  TC: 70.5 mg/dL
  TG: 64.2 mg/dL
  TP: 5.8 g/dL
  gamma-GTP: 2.2 IU/L
[8]
  TERMINAL_BW: 371.8 g
  APTT: 27.4 s
  Bas: 0%
  Eos: 1%
  Fbg: 349 mg/dL
  Hb: 16.1 g/dL
  Ht: 46.7%
  Lym: 76.5%
  MCH: 19.9 pg
  MCHC: 34.5%
  MCV: 57.7 fL
  Mono: 2.5%
  Neu: 19%
  PT: 16.6 s
  Plat: 91.7 x10_4/uL
  RBC: 810 x10_4/ul
  Ret: 3.6%
  WBC: 133.1 x10_2/uL
  KIDNEY_L: 1.4 g
  KIDNEY_R: 1.4 g
  KIDNEY_TOTAL: 2.8 g
  LIVER: 15.5 g
  A/G: 1.1
  ALP: 1103 IU/L
  ALT: 54 IU/L
  AST: 92.5 IU/L
  BUN: 16.5 mg/dL
  CRE: 0.2 mg/dL
  Ca: 10.8 mg/dL
  Cl: 105 meq/L
  DBIL: 0 mg/dL
  GLC: 186.5 mg/dL
  IP: 7.5 mg/dL
  K: 4.1 meq/L
  LDH: 140.5 IU/L
  Na: 143 meq/L
  PL: 133.5 mg/dL
  RALB: 3.3 g/dL
  TBIL: 0.025 mg/dL
  TC: 66 mg/dL
  TG: 90 mg/dL
  TP: 6.5 g/dL
  gamma-GTP: 2.5 IU/L
